The results in this text go back to patent US4226775A, “Substituted thio-substituted benzyl-propionyl-L-prolines” (American Cyanamid Company, priority 1979, dated 1980).

The assay addresses T1, angiotensin converting enzyme (ACE) (Oryctolagus cuniculus, UniProt P12822).
T1 construct: The ACE was extracted from rabbit lung acetane powder (Pel-Freez, Biol. Inc.); tissue Pel-Freez, Biol. Inc; host or cells: rabbit lung acetone powder, crude extract (40,000 g supernatant)
T1 sequence (P12822 34-1310): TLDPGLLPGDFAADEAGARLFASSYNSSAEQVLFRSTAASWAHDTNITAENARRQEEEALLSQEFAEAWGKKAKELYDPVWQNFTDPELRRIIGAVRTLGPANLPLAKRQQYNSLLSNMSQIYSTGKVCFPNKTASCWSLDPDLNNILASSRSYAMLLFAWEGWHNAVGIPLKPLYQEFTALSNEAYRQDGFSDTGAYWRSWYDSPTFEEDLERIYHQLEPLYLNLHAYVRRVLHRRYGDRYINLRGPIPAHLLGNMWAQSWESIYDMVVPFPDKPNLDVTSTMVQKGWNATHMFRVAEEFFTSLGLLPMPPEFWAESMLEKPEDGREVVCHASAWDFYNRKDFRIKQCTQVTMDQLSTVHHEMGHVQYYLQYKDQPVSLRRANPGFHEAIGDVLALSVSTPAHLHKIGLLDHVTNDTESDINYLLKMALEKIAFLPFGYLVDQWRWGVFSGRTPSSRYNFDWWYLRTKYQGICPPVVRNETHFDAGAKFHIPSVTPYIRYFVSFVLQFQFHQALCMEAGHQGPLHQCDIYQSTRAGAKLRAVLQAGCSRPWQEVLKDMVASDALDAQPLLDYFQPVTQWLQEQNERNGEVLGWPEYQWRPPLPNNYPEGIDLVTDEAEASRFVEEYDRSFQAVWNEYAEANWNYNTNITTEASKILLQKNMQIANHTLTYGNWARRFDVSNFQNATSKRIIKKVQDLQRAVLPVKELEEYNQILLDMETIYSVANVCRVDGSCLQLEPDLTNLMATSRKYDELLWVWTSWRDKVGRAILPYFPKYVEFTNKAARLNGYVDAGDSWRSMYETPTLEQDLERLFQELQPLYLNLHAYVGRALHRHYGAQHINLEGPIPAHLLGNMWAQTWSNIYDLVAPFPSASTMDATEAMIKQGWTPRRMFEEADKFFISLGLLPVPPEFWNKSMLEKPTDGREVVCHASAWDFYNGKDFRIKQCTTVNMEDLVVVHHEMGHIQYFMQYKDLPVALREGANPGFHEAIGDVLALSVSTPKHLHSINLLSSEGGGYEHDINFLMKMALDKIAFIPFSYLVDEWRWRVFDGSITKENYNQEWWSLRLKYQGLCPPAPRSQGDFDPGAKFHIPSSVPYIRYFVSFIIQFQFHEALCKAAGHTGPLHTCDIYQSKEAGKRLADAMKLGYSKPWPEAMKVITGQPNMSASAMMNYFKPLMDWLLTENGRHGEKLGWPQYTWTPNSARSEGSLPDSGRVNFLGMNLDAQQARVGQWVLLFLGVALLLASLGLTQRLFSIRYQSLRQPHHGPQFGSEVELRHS
Briefly: Spectrophotometric assay for angiotensin converting enzyme inhibitors. The conditions noted are these: crude ACE extract from rabbit lung; substrate benzoyl-glycyl-histidyl-leucine; 30 minutes at 37° C.; absorbance at 228 nm. The format is biochemical. As to the method:
The activity of the novel compounds of this invention as hypotensive agents was established in two systems which measure their ability as angiotensin converting enzyme inhibitors; namely, a spectrophotometric assay of the compounds in vitro and by the measurement of the blood pressure lowering effect of the compounds in the aorta-coarcted renal hypertensive rats.
The in vitro activity for inhibition of the angiotensin converting enzyme (ACE) was measured by the method of Cushman, D. W. and Cheung, H. S., Biochem. Pharmacol. 20, 1637-1648 (1971), using benzoyl-glycyl-histidyl-leucine as the substrate. The reaction mixture consisted of 50 ml. of potassium phosphate (500 mM., […]), […]. of sodium chloride (2500 mM.), 25 ml. of substrate (50 mM), 30 to 50 ml. of the crude extract of ACE, 10 ml. of test compound (2.5 mM) or vehicle and a suitable amount of distilled water to give a total volume of 250 ml. This reaction mixture was incubated for 30 minutes at 37° C. and the reaction was then terminated by the addition of 250 ml. of 1 N hydrochloric acid. The hippuric acid was then extracted with 1.5 ml. of ethyl acetate by vortex mixing for 15 seconds. After centrifugation, 1 ml. of the ethyl acetate layer was pipetted into a new tube and evaporated to dryness. The extracted hippuric acid was then dissolved in 1 ml. of water and the amount of this acid was then measured by its absorbance at 228 nm. The ACE was extracted from rabbit lung acetane powder (Pel-Freez, Biol. Inc.) by blending 5 g. of the powder in 50 ml. of phosphate buffer (50 mM, pH 8.3) and then centrifuging at 40,000 g for 30 minutes. The supernatant was then kept at 5° C. and used as the enzyme source. The activity of the ACE inhibitor was calculated as the percent inhibition of ACE activity compared to the control value of that particular assay. A full dose-response inhibitory curve is then performed to determine the IC50 value which may be defined as the molar concentration of a compound that will inhibit the ACE activity by 50%.

On to `CC(=O)SC(CC(=O)c1ccccc1)C(=O)N1CCC[C@H]1C(=O)O` (stereo partly drawn) [1-(2-Acetylthio-3-benzoylpropionyl)-L-proline], for which the IC50 (in general, the concentration at which inhibition is half-maximal) amounted to 4230 nM.

`CC(=O)SC(C(=O)c1ccccc1)C(C)C(=O)N1CCC[C@H]1C(=O)O` (stereo partly drawn) [1-(3-Acetylthio-3-benzoyl-2-methylpropionyl)-L-proline]: inhibition was half-maximal at 147 nM (IC50).

On to `CC(=O)SC(CC(=O)N1CCC[C@H]1C(=O)O)C(=O)c1ccccc1` (stereo partly drawn) [1-(3-Acetylthio-3-benzoylpropionyl)-L-proline], for which the IC50 amounted to 455 nM.

`O=C(SC(CC(=O)N1CCC[C@H]1C(=O)O)C(=O)c1ccccc1)c1ccccc1` (stereo partly drawn) [1-(3-Benzoylthio-3-benzoylpropionyl)-L-proline] returned an IC50 of 513 nM.

The molecule `O=C(SC(CC(=O)N1CCC[C@H]1C(=O)O)C(=O)c1ccc(Br)cc1)c1ccccc1` (stereo partly drawn) [1-[3-(4-Bromobenzoyl)-3-benzoylthiopropionyl]-L-proline] yielded an IC50 of 115 nM.

The molecule `O=C(c1ccc(Br)cc1)C(S)CC(=O)N1CCC[C@H]1C(=O)O` (stereo partly drawn) [1-[3-(4-Bromobenzoyl)-3-thiopropionyl]-L-proline] registered an IC50 of 352 nM.

`O=C(c1cnc(SC(CC(=O)N2CCC[C@H]2C(=O)O)C(=O)c2ccc(Cl)cc2)nc1)c1cccs1` (stereo partly drawn) [1-[3-(4-Chlorobenzoyl)-3-[5-(2-thenoyl)-2-pyrimidinylthio]propionyl]-L-proline] gave an IC50 of 5130 nM.

With `O=C(c1ccccc1)c1cnc(SC(CC(=O)N2CCC[C@H]2C(=O)O)C(=O)c2ccc(Cl)cc2)nc1` (stereo partly drawn) [1-[3-(5-Benzoyl-2-pyrimidinylthio)-3-(4-chlorobenzoyl)propionyl]-L-proline], the IC50 is 2780 nM.

As for `CC(=O)SC(CC(=O)N1CCC[C@H]1C(=O)O)C(=O)c1ccc2ccccc2c1` (stereo partly drawn) [1-[3-Acetylthio-3-(2-naphthoyl)propionyl]-L-proline], the IC50 was determined as 130 nM.

As for `COc1ccc(C(=O)C(CC(=O)N2CCC[C@H]2C(=O)O)SC(C)=O)cc1F` (stereo partly drawn) [1-[3-Acetylthio-3-(3-fluoro-4-methoxybenzoyl)propionyl]-L-proline], inhibition was half-maximal at 600 nM (IC50).

Regarding `CC(=O)SC(C(=O)c1cccc(F)c1)C(C)C(=O)N1CCC[C@H]1C(=O)O` (stereo partly drawn) [1-[3-Acetylthio-3-(3-fluorobenzoyl)-2-methylpropionyl]-L-proline], the IC50 was found to be 61.7 nM.

Molecule `CC(=O)SC(CC(=O)N1CCC[C@H]1C(=O)O)C(=O)c1cccc(F)c1` (stereo partly drawn) [1-[3-Acetylthio-3-(3-fluorobenzoyl)propionyl]-L-proline] had an IC50 of 31.6 nM.

`CC(=O)SC(CC(=O)N1CCC[C@H]1C(=O)O)C(=O)c1cccc(C(F)(F)F)c1` (stereo partly drawn) [1-[3-Acetylthio-3-(3-trifluoromethylbenzoyl)propionyl]-L-proline] displayed an IC50 of 1070 nM.

Regarding `CC(=O)SC(CC(=O)N1CCC[C@H]1C(=O)O)C(=O)c1ccc(-c2ccccc2)cc1` (stereo partly drawn) [1-[3-Acetylthio-3-(4-biphenylylcarbonyl)propionyl]-L-proline], half-maximal inhibition (IC50) was put at 86 nM.

`CC(=O)SC(CC(=O)N1CCC[C@H]1C(=O)O)C(=O)c1ccc(Br)cc1` (stereo partly drawn) [1-[3-Acetylthio-3-(4-bromobenzoyl)propionyl]-L-proline] had an IC50 of 131 nM.

With `CC(=O)SC(C(=O)c1ccc(Cl)cc1)C(C)C(=O)N1CCC[C@H]1C(=O)O` (stereo partly drawn) [1-[3-Acetylthio-3-(4-chlorobenzoyl)-2-methylpropionyl]-L-proline], inhibition was half-maximal at 335 nM (IC50).

The molecule `CC(=O)SC(CC(=O)N1CCC[C@H]1C(=O)O)C(=O)c1ccc(Cl)cc1` (stereo partly drawn) [1-[3-Acetylthio-3-(4-chlorobenzoyl)propionyl]-L-proline] yielded an IC50 of 82.6 nM.

In turn, `CC(=O)SC(CC(=O)N1CCC[C@H]1C(=O)O)C(=O)c1ccc(F)cc1` (stereo partly drawn) [1-[3-Acetylthio-3-(4-fluorobenzoyl)propionyl]-L-proline] registered an IC50 of 473 nM.

`CC(=O)SC(CC(=O)N1CCC[C@H]1C(=O)O)C(=O)c1ccc(C(C)(C)C)cc1` (stereo partly drawn) [1-[3-Acetylthio-3-(4-tert-butylbenzoyl)propionyl]-L-proline]: the 50% inhibitory concentration (IC50) turned out to be 183 nM.

Turning to `O=C(O)CSC(CC(=O)c1ccccc1)C(=O)N1CCC[C@H]1C(=O)O` (stereo partly drawn) [1-[3-Benzoyl-2-(carboxymethylthio)propionyl]-L-proline], the IC50 stood at 31600 nM.

As for `O=C(SC(CC(=O)N1CCC[C@H]1C(=O)O)C(=O)c1cccc(F)c1)c1ccccc1` (stereo partly drawn) [1-[3-Benzoylthio-3-(3-fluorobenzoyl)propionyl]-L-proline], the IC50 was determined as 1760 nM.

`O=C(SC(CC(=O)N1CCC[C@H]1C(=O)O)C(=O)c1ccc(F)cc1)c1ccccc1` (stereo partly drawn) [1-[3-Benzoylthio-3-(4-fluorobenzoyl)propionyl]-L-proline] displayed an IC50 of 353 nM.

On to `CC(=O)SC(CC(=O)N1CCC[C@H]1C(=O)O)C(=O)c1ccc2c(c1)CCC2` (stereo partly drawn) [1-[3-acetylthio-3-(5-indanylcarbonyl)propionyl]-L-proline], for which it took 218 nM to reach half-maximal inhibition (IC50).

`CC(=O)SC(CC(=O)N1CCC[C@H]1C(=O)O)C(=O)c1ccc(Oc2ccc(Cl)cc2)cc1` (stereo partly drawn) [1-{3-Acetylthio-3-[4-(4-chlorophenoxy)benzoyl]-propionyl}-L-proline] yielded a 50% inhibitory concentration (IC50) of 358 nM.

`CC(=O)S[C@@H](C(=O)c1cccc(F)c1)[C@H](C)C(=O)N1CCC[C@H]1C(=O)O` [[R-(R*,R*)]-1-[3-acetylthio-3-(3-fluorobenzoyl)-2-methylpropionyl]-L-proline] displayed an IC50 of 16000 nM.

Consider `CC(=O)S[C@H](C(=O)c1cccc(F)c1)[C@H](C)C(=O)N1CCC[C@H]1C(=O)O` [[R-(R*,S*)]-1-[3-acetylthio-3-(3-fluorobenzoyl)-2-methylpropionyl]-L-proline], for which half-maximal inhibition (IC50) was put at 280000 nM.

`CC(=O)S[C@H](C(=O)c1ccccc1)[C@@H](C)C(=O)N1CCC[C@H]1C(=O)O` [[S-(R*,R*)]-1-(3-acetylthio-3-benzoyl-2-methylpropionyl)-L-proline] yielded an IC50 of 78 nM.

In turn, `CC(=O)S[C@H](C(=O)c1cccc(F)c1)[C@@H](C)C(=O)N1CCC[C@H]1C(=O)O` [[S-(R*,R*)]-1-[3-acetylthio-3-(3-fluorobenzoyl)-2-methylpropionyl]-L-proline] registered an IC50 of 233 nM.

`CC(=O)S[C@H](C(=O)c1ccc(Br)cc1)[C@@H](C)C(=O)N1CCC[C@H]1C(=O)O` [[S-(R*,R*)]-1-[3-acetylthio-3-(4-bromobenzoyl)-2-methylpropionyl]-L-proline]: the IC50 was 133 nM.

For the molecule `CC(=O)S[C@@H](C(=O)c1ccccc1)[C@@H](C)C(=O)N1CCC[C@H]1C(=O)O` [[S-(R*,S*)]-1-(3-Acetylthio-3-benzoyl-2-methylpropionyl)-L-proline], the IC50 stood at 51.5 nM.

In turn, `CC(=O)S[C@@H](C(=O)c1cccc(F)c1)[C@@H](C)C(=O)N1CCC[C@H]1C(=O)O` [[S-(R*,S*)]-1-[3-acetylthio-3-(3-fluorobenzoyl)-2-methylpropionyl]-L-proline] registered an IC50 of 37 nM.
